In patent US11013696B2, “Lipids and lipid compositions for the delivery of active agents” (Novartis AG, priority 2013, dated 2021):

Legend:
[1] = Percent encapsulation of mRNA in lipid nanoparticles (Quant-iT Ribogreen); type: physicochemical; details: Table 2; leptin mRNA in LNP with the cationic lipid
How it was run: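 LNPs made by T-junction mixing of ethanolic lipids (cationic lipid:DSPC:cholesterol:PEG lipid 40:10:38:2, N:P 4:1) with mRNA in citrate pH 5.8-6.0, then dialysed against PBS overnight at 4 °C. RiboGreen fluorescence (ex 480/em 520 nm) measured in TE ± 0.75% Triton X-100; encapsulation = (total − free)/total.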

[2] = Entrapment and RNA concentration of RSV-F replicon liposomes (Quant-iT RiboGreen); type: physicochemical
Description: RNA was encapsulated in liposomes made essentially by the method of Geall et al. (2012) PNAS vol. 109 (36): 14604-14609, Jeffs et al. (2005) Pharmaceutical Research 22 (3):362-372 and Maurer et al. (2001) Biophysical Journal, 80: 2310-2326 The liposomes were made of 10% DSPC (zwitterionic), 40% cationic lipid, 48% cholesterol and 2% PEG-conjugated DMG (2 kDa PEG). These proportions refer to the % moles in the total liposome.
Briefly, lipids were dissolved in ethanol (2 ml), a RNA replicon was dissolved in buffer (2 ml, 100 mM sodium citrate, pH 6) and these were mixed with 2 ml of buffer followed by 1 hour of equilibration. The mixture was then dialized overnight against 1×PBS. The resulting product contained liposomes, with ˜70-95% encapsulation efficiency. For in vitro and in vivo experiments formulations were diluted to the required RNA concentration with 1×PBS.
The percentage of encapsulated RNA and RNA concentration were determined by Quant-iT RiboGreen RNA reagent kit (Invitrogen), following manufacturer's instructions. The ribosomal RNA standard provided in the kit was used to generate a standard curve. Liposomes were diluted 10× or 100× in 1×TE buffer (from kit) before addition of the dye. Separately, liposomes were diluted 10× or 100× in 1×TE buffer containing 0.5% Triton X before addition of the dye (to disrupt the liposomes and thus to assay total RNA). Thereafter an equal amount of dye was added to each solution and then ˜180 μL of each solution after dye addition was loaded in duplicate into a 96 well tissue culture plate. The fluorescence (Ex 485 nm, Em 528 nm) was read on a microplate reader. All liposome formulations were dosed in vivo based on the encapsulated amount of RNA.
(§1) A self-replicating replicon encoding RSV F protein was administered to BALB/c mice, 8 animals per group, by bilateral intramuscular vaccinations (50 μL per leg) on days 0 and 21 with the replicon (0.1 and 1 ng) formulated as liposomes with the lipids described below. All liposomes tested were composed of 40% cationic lipid, 10% DSPC, 48% cholesterol and 2% PEG-DMG with similar amounts of RNA. The liposomes were all prepared using the same technique as described above.
(§2) % entrapment (% E), Concentration of RNA (Conc), particle size measured by DLS, and polydispersity reported by DLS of LNPs prepared with different cationic lipids

[3] = Particle size and polydispersity by DLS of RSV-F replicon LNPs; type: physicochemical
Description: as §1, §2

RSV F protein = test: RSV immunogenicity: IgG titers after two IM immunizations with vA375 RNA expressing RSV-F in LNPs; type: in vivo, BALB/c mice; details: IM days 0 and 21, two weeks after two immunizations
human leptin [4] = test: Human leptin in mouse plasma (ELISA) after IV tail vein injection of encapsulated leptin mRNA; type: in vivo; details: hLeptin, 0.2 mpk, ob/ob
Description: Human leptin in mouse plasma was measured by ELISA. Antibodies purchased from the R&D Systems duoset (Cat #DY398E, part #840279 for capture antibody and part #840280 for detection antibody) were reconstituted using PBS and titered, again using PBS. The capture antibody was coated at 4 ug/ml in 30 ul/well on a white Nunc® Maxisorp 384 well plate (Cat #460372). After an overnight incubation at room temperature the capture antibody was aspirated and the plate blocked for 2 hours at room temperature with 90 ul/well of KPL milk blocker (Cat #50-82-00). Once the incubation was completed the plate was aspirated and recombinant standards and samples were added to the plate at 30 ul/well for 2 hours at 37° C. while shaking at 600 rpm. Sample/standard dilutions were made using casein sample diluent. Washing/aspiration 3 times with 100 ul/well followed, using Teknova plate wash solution (Cat #P1192). Next, detection antibody was diluted using casein detection antibody diluent to 12.5 ng/ml and added at 30 ul/well for 2 hours room temperature. After this incubation, the plate was washed again and a solution of poly-streptavidin-HRP (Cat #21140) at a 1:1250 dilution in HRP dilution buffer was added to each well (30 ul/well) and incubated for 30 minutes room temperature. A final wash/aspiration removed the HRP solution and a chemiluminescent substrate was added at 30 ul/well (Cat #1859678 & 1859679). The plate was quickly read using a SpectramaxM5 plate reader with a 50 ms integration time. The dynamic range of the ELISA is from 100-2,000 […] (6.25-125 pM) of human leptin. The assay is applicable to plasma from mice, rats and cynomolgus monkeys.
Before the tail vein injection, mouse body weights were recorded and diet weighted, with mice grouped according to their body weights. Mice were prepared by warming them under a heating lamp for ˜2 minutes, with the mice about 12 inches from heat lamp. […]
On day 0, animals were weighed and sorted according to average body weight. Mice were dosed, and food intake (FI) was recorded, on each of days 1-7 and days 9, 11, and 16.

human leptin [5] = test: Human leptin in mouse plasma (ELISA) after subcutaneous injection of encapsulated leptin mRNA; type: in vivo; details: hLeptin, 0.2 mpk, ob/ob
Factor VII = test: Mouse Factor VII dosing and plasma Factor VII activity assay (FVII siRNA LNP, IV); type: in vivo; details: 0.03 mpk, XXX mice
Description: Female CD-1 mice were received from Harlan Labs and maintained on standard lab chow and water ad libitum. The animals weighed approximately 25 gr at time of dosing. Formulated Factor VII siRNA was administered as a single dose intravenously via the lateral tail vein. Approximately 48 hours after injection, the mice were euthanized by CO2 inhalation followed by exsanguination through the vena cava.
Plasma collected from injected mice was assayed for Factor VII enzyme activity using the Biophen FVII kit from Hyphen Biomedical (catalog number 221304). An assay standard curve was prepared using pooled plasma aliquots from the vehicle control animals. All samples were diluted to fall within the linear range of the standard curve and Factor VII activity relative to control plasma was reported.
Lipid nanoparticles comprising lipid compounds of formula (I) and the FVII siRNA duplex sequence listed above were tested in the Factor VII Activity Assay. The results of this assay are given in Table 34 below as a percent knock down of plasma Factor VII enzyme activity at a dose of 0.3 mg/kg and 0.03 mg/kg.

[6] = RSV-F replicon LNP prepared for 1st IM
[7] = RSV-F replicon LNP prepared for 2nd IM

SMILES	% encapsulation mRNA Leptin [1]	% E (% entrapment) [2, 6]	% E (% entrapment) [2, 7]	PDI [3, 6]	Size [3, 6]	PDI [3, 7]	Size [3, 7]	Immunogenicity (2wp2, log10 IgG titers) (RSV F protein; 0.1 ng vA375 RNA)	Immunogenicity (2wp2, log10 IgG titers) (RSV F protein; 1 ng vA375 RNA)	Expression of protein following IV injection of encapsulated mRNA (human leptin [4])	Expression of protein following SC injection of encapsulated mRNA (human leptin [5])	FVII knock-down following IV injection of encapsulated siRNA (Factor VII)
CCCCC/C=C\C/C=C\CCCCCCCCC(CCCOC(=O)CCC(=O)OC(CCCCCCCC)CCCCCCCC)OC(=O)OCCCN(C)C (stereo not drawn) [Example 58, (13Z,16Z)-4-(((3-(dimethylamino)propoxy)carbonyl)oxy)docosa-13,16-dien-1-yl heptadecan-9-yl succinate]	90.2%	87.48%	87.03%	0.111	139.4 nm	0.075	137.1 nm	4.19 log10 IgG titers	4.26 log10 IgG titers	–	–	–
CCCCCCCCCCCCC(CCC(=O)OC(COC(=O)CCCCCCCCC)COC(=O)CCCCCCCCC)OC(=O)OCCCN(C)CC (stereo not drawn) [Example 91, 2-((4-(((3-(ethyl(methyl)amino)propoxy)carbonyl)oxy)hexadecanoyl)oxy)propane-1,3-diyl bis(decanoate)]	94.4%	–	–	–	–	–	–	–	–	33.6 ng/mL	3.5 ng/mL	97%/0.03
CCCCC/C=C\C/C=C\CCCCCCCC(=O)OCC(COC(=O)CCCCCCC/C=C\C/C=C\CCCCC)OC(=O)C(CCCCCCCCCCCC)OC(=O)OCCCN(C)C (stereo not drawn) [Example 98, (9Z,9′Z,12Z,12′Z)-2-((2-(((3-(dimethylamino)propoxy)carbonyl)oxy)tetradecanoyl)oxy)propane-1,3-diyl bis(octadeca-9,12-dienoate)]	73.4%	85.91%	76.36%	0.07	139.4 nm	0.065	130.9 nm	4.28 log10 IgG titers	4.64 log10 IgG titers	–	–	–
CCCCC/C=C\C/C=C\CCCCCCCC(=O)OCC(COC(=O)CCCCCCC/C=C\C/C=C\CCCCC)COC(=O)CCC(CCCCCCCCCCCC)OC(=O)OCCCN(C)C (stereo not drawn) [Example 105, (9Z,9′Z,12Z,12′Z)-2-(9-dodecyl-2-methyl-7,12-dioxo-6,8,13-trioxa-2-azatetradecan-14-yl)propane-1,3-diyl bis(octadeca-9,12-dienoate)]	–	85.22%	69.54%	0.107	137.2 nm	0.123	135.7 nm	4.21 log10 IgG titers	4.53 log10 IgG titers	–	–	–
CCCCCCCCCCCCC(CCOC(=O)CCCCC(OCC(CCC)CCC)OCC(CCC)CCC)OC(=O)OCCCN(C)C (stereo not drawn) [Example 115, 3-(((3-(dimethylamino)propoxy)carbonyl)oxy)pentadecyl 6,6-bis((2-propylpentyl)oxy)hexanoate]	97.8%	95.76%	95.78%	0.075	141.3 nm	0.065	130.9 nm	1.91 log10 IgG titers	3.31 log10 IgG titers	–	–	–
CCCCCCCCCCCCC(CCCOC(=O)CCCCC(COC(=O)CCCCCCC)COC(=O)CCCCCCC)OC(=O)C1(C)CCN(C)CC1 (stereo not drawn) [Example 131, 2-(5-((4-((1,4-dimethylpiperidine-4-carbonyl)oxy)hexadecyl)oxy)-5-oxopentyl)propane-1,3-diyl dioctanoate]	96.4%	85.31%	80.31%	0.119	138.3 nm	0.07	143.5 nm	4.43 log10 IgG titers	5.22 log10 IgG titers	–	–	–
